According to ChEMBL document CHEMBL4190263, “Bacterial Production of a Pederin Analogue by a Free-Living Marine Alphaproteobacterium” (2017):

What was measured:
Type in all cases: functional
[1] = system: A549; assay: Antiproliferative activity against human A549 cells assessed as growth inhibition after 72 hrs by SRB assay; details: A549, 72 h
[2] = system: HT-29; assay: Antiproliferative activity against human HT-29 cells assessed as growth inhibition after 72 hrs by SRB assay; details: HT-29, 72 h
[3] = system: MDA-MB-231; assay: Antiproliferative activity against human MDA-MB-231 cells assessed as growth inhibition after 72 hrs by SRB assay; details: MDA-MB-231, 72 h
[4] = system: PSN1; assay: Antiproliferative activity against human PSN1 cells assessed as growth inhibition after 72 hrs by SRB assay; details: PSN1, 72 h

Measured: GI50

C=C1C[C@](OC)([C@H](O)C(=O)N[C@@H](OC)[C@@H]2C[C@@H](O)C(C)(C)[C@@H](C[C@@H](CO)OC)O2)O[C@H](C)[C@@H]1C
2 to 2.9 nM: all assays above
